Among the test systems are NCI/ADR-RES ovarian; SW-620 colon; OVCAR-8 ovarian; SN12C renal; COLO 205 colon; HT29 colon; SK-MEL-2 melanoma; SNB-19 CNS; HCC-2998 colon; CCRF-CEM leukemia; HL-60(TB) leukemia; SK-OV-3 ovarian; SK-MEL-28 melanoma; SF-295 CNS; K-562 leukemia; RXF 393 renal; MOLT-4 leukemia; OVCAR-3 ovarian; NCI-H23 lung; HCT-116 colon.
Holding throughout (assay): NCI tumour cell line growth inhibition, 48 h

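Method: 48-hour compound exposure of cells in 96-well plates, five concentrations, linear interpolation of endpoints. Definition used: TGI = concentration required for complete inhibition of growth.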

`COc1cc(OC)c2c(=O)c(OC)c(-c3ccc4c(c3)OCO4)oc2c1OC`: the TGI in the experiment with NCI/ADR-RES ovarian, in the experiment with SW-620 colon, in the experiment with OVCAR-8 ovarian, in the experiment on SN12C renal, in the experiment with COLO 205 colon and with HT29 colon was > 100 µM each time. Besides, the TGI is > 100 µM in the experiment on SK-MEL-2 melanoma; > 100 µM in the experiment with SNB-19 CNS; > 100 µM in the experiment with HCC-2998 colon; 83.5 µM with CCRF-CEM leukemia; 40.4 µM with HL-60(TB) leukemia; > 100 µM in the experiment with SK-OV-3 ovarian. Also, the TGI with SK-MEL-28 melanoma, with SF-295 CNS, in the experiment with K-562 leukemia, with RXF 393 renal, in the experiment on MOLT-4 leukemia and in the experiment on OVCAR-3 ovarian was > 100 µM throughout. Besides, the TGI in the experiment on NCI-H23 lung and in the experiment on HCT-116 colon was > 100 µM each time.
For the molecule `CC(C)COC(=O)OC(=O)c1ccc(N(C)Cc2cnc3nc(N)nc(N)c3n2)cc1`, the TGI in the experiment with NCI/ADR-RES ovarian, with SW-620 colon, with OVCAR-8 ovarian, in the experiment on SN12C renal, in the experiment on COLO 205 colon and in the experiment on HT29 colon was > 100 µM each time. For the same molecule, the TGI with SK-MEL-2 melanoma, in the experiment on SNB-19 CNS, in the experiment with HCC-2998 colon, in the experiment with CCRF-CEM leukemia, with HL-60(TB) leukemia and in the experiment on SK-OV-3 ovarian was > 100 µM each time. The TGI in the experiment on SK-MEL-28 melanoma, in the experiment on SF-295 CNS, with K-562 leukemia, in the experiment with RXF 393 renal, in the experiment on MOLT-4 leukemia and with OVCAR-3 ovarian was > 100 µM in each case. Besides, the TGI in the experiment on NCI-H23 lung and with HCT-116 colon was > 100 µM throughout.
As for `O=c1cc(N2CCCC2)[nH]c(=O)n1-c1ccc(F)cc1`, the TGI in the experiment with NCI/ADR-RES ovarian, in the experiment with SW-620 colon, in the experiment with OVCAR-8 ovarian, in the experiment with SN12C renal, in the experiment with COLO 205 colon and in the experiment on HT29 colon was > 100 µM in each case. For the same molecule, the TGI with SK-MEL-2 melanoma, with SNB-19 CNS, with HCC-2998 colon, in the experiment with CCRF-CEM leukemia, with HL-60(TB) leukemia and in the experiment with SK-OV-3 ovarian was > 100 µM each time. For the same molecule, the TGI with SK-MEL-28 melanoma, with SF-295 CNS, with K-562 leukemia, with RXF 393 renal, in the experiment with MOLT-4 leukemia and with OVCAR-3 ovarian was > 100 µM each time. The TGI in the experiment with NCI-H23 lung and in the experiment with HCT-116 colon was > 100 µM throughout.
`NC(=O)C(=CNC(=S)Nc1ccc(Cl)c(Cl)c1)C(N)=O`: the TGI in the experiment with NCI/ADR-RES ovarian, with SW-620 colon, in the experiment on OVCAR-8 ovarian, in the experiment with SN12C renal, in the experiment on COLO 205 colon and in the experiment on HT29 colon was > 100 µM throughout. In addition, the TGI in the experiment on SK-MEL-2 melanoma, in the experiment with SNB-19 CNS, in the experiment on HCC-2998 colon, with CCRF-CEM leukemia, with HL-60(TB) leukemia and in the experiment on SK-OV-3 ovarian was > 100 µM each time. The TGI was > 100 µM with SK-MEL-28 melanoma; > 100 µM in the experiment on SF-295 CNS; > 100 µM with K-562 leukemia; > 95.7 µM in the experiment on RXF 393 renal; > 100 µM in the experiment on MOLT-4 leukemia; > 100 µM in the experiment with OVCAR-3 ovarian. In addition, the TGI with NCI-H23 lung and with HCT-116 colon was > 100 µM in each case.
On to `O=C(O)CC1NC(/C(=C/c2ccccc2O)NC(=O)c2ccccc2)OC1=O` (centres undefined), for which the TGI in the experiment with NCI/ADR-RES ovarian was > 100 µM; in the experiment on SW-620 colon, > 100 µM; with OVCAR-8 ovarian, > 87.8 µM; in the experiment on SN12C renal it was > 100 µM; in the experiment with COLO 205 colon it was > 100 µM; with HT29 colon it was > 100 µM. The TGI in the experiment with SK-MEL-2 melanoma is > 100 µM; in the experiment on SNB-19 CNS it was 49.5 µM; in the experiment with HCC-2998 colon it was > 100 µM; in the experiment on CCRF-CEM leukemia, > 100 µM; in the experiment on HL-60(TB) leukemia, > 100 µM; in the experiment on SK-OV-3 ovarian it was > 100 µM. Besides, the TGI with SK-MEL-28 melanoma was > 100 µM; with SF-295 CNS, > 95.7 µM; in the experiment with K-562 leukemia it was > 100 µM; in the experiment with RXF 393 renal, 99.2 µM; in the experiment on MOLT-4 leukemia it was > 100 µM; with OVCAR-3 ovarian, > 61.2 µM. For the same molecule, the TGI in the experiment on NCI-H23 lung and in the experiment with HCT-116 colon was > 100 µM in each case.
`CCOC(=O)CSc1nnc(CSc2nc(-c3ccccc3)c(-c3ccccc3)[nH]2)n1-c1ccccc1`: the TGI in the experiment with NCI/ADR-RES ovarian was > 100 µM; with SW-620 colon, > 100 µM; with OVCAR-8 ovarian, 35.3 µM; with SN12C renal, 34.9 µM; with COLO 205 colon, > 100 µM; with HT29 colon, > 100 µM. Besides, the TGI is > 31.6 µM in the experiment on SK-MEL-2 melanoma; > 100 µM in the experiment with SNB-19 CNS; 37.1 µM in the experiment on HCC-2998 colon; > 100 µM in the experiment with CCRF-CEM leukemia; 98.8 µM in the experiment with HL-60(TB) leukemia; 43.8 µM with SK-OV-3 ovarian. The TGI is > 100 µM in the experiment on SK-MEL-28 melanoma; > 100 µM in the experiment with SF-295 CNS; > 100 µM in the experiment with K-562 leukemia; 39.5 µM with RXF 393 renal; > 93.8 µM in the experiment with MOLT-4 leukemia; > 100 µM in the experiment on OVCAR-3 ovarian. Moreover, the TGI with NCI-H23 lung and with HCT-116 colon was > 100 µM in each case.
With `COC(=O)C1(C(=O)OC)N=C(C)OC1c1ccccn1` (centres undefined), the TGI in the experiment with NCI/ADR-RES ovarian, with SW-620 colon, in the experiment with OVCAR-8 ovarian, in the experiment on SN12C renal, in the experiment on COLO 205 colon and with SK-MEL-2 melanoma was > 100 µM in each case. The TGI in the experiment on SNB-19 CNS, in the experiment with HCC-2998 colon, in the experiment on CCRF-CEM leukemia, in the experiment with HL-60(TB) leukemia, in the experiment with SK-OV-3 ovarian and in the experiment on SK-MEL-28 melanoma was > 100 µM in each case. Besides, the TGI in the experiment on SF-295 CNS, in the experiment on K-562 leukemia, with RXF 393 renal, in the experiment with MOLT-4 leukemia, in the experiment with OVCAR-3 ovarian and in the experiment with NCI-H23 lung was > 100 µM throughout. Moreover, the TGI with HCT-116 colon was > 100 µM.

Values taken from PubChem BioAssay (NCI).
